Target: Beta-secretase 1 (Homo sapiens, UniProt P56817)
Experiment: Binding affinity for human brain memapsin 2

Beta-secretase 1, sequence (P56817 whole entry): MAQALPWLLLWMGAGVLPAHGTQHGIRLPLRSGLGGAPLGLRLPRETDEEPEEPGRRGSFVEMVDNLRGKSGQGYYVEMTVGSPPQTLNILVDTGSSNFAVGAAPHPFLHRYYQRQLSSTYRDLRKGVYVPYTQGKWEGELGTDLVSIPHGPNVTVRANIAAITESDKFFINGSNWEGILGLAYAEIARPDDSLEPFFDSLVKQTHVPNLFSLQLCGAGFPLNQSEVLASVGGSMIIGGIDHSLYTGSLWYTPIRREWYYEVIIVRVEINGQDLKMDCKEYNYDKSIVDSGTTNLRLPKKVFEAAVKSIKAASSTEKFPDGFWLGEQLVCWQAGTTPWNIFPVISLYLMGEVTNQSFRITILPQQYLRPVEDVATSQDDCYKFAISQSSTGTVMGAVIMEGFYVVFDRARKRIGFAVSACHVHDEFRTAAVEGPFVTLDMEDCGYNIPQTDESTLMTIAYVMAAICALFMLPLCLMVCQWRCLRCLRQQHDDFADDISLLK

Row | SMILES | Ki
1 | CC(C)C[C@H](NC(=O)[C@H](CS(C)(=O)=O)NC(=O)OC(C)(C)C)[C@@H](O)C[C@@H](C)C(=O)N[C@H](C(=O)NCc1ccccc1)C(C)C | 1130 nM
2 | CSCC[C@H](NC(=O)[C@@H](NC(=O)OC(C)(C)C)C(C)C)C(=O)N[C@@H](CC(C)C)[C@@H](O)C[C@@H](C)C(=O)N[C@H](C(=O)NCc1ccccc1)C(C)C | 2.5 nM
3 | CC(C)C[C@H](NC(=O)[C@H](CC(N)=O)NC(=O)C(N)C(C)C)[C@@H](O)C[C@@H](C)C(=O)N[C@@H](C)C(=O)N[C@H](CCC(=O)O)C(=O)NC(Cc1ccccc1)C(=O)O (some centres undefined) | 36 nM
4 | CSCC[C@H](NC(=O)OC(C)(C)C)C(=O)N[C@@H](CC(C)C)[C@@H](O)C[C@@H](C)C(=O)N[C@H](C(=O)NCc1ccccc1)C(C)C | 5810 nM
5 | CC(C)C[C@H](NC(=O)[C@H](CC(N)=O)NC(=O)[C@@H](NC(=O)OC(C)(C)C)C(C)C)[C@@H](O)C[C@@H](C)C(=O)N[C@@H](C)C(=O)NCc1ccccc1 | 61.4 nM
6 | CC(C)C[C@H](NC(=O)[C@H](CS(C)(=O)=O)NC(=O)[C@@H](NC(=O)OC(C)(C)C)C(C)C)[C@@H](O)C[C@@H](C)C(=O)N[C@H](C(=O)NCc1ccccc1)C(C)C | 9.4 nM
7 | CC(C)C[C@H](NC(=O)[C@H](CC(N)=O)NC(=O)OC(C)(C)C)[C@@H](O)C[C@@H](C)C(=O)N[C@@H](C)C(=O)NCc1ccccc1 | 22400 nM
8 | CC(C)C[C@H](NC(=O)[C@H](CC(N)=O)NC(=O)[C@@H](NC(=O)OC(C)(C)C)C(C)C)[C@@H](O)C[C@@H](C)C(=O)N[C@H](C(=O)NCc1ccccc1)C(C)C | 5.9 nM
9 | CSC[C@H](NC(=O)[C@@H](NC(=O)OC(C)(C)C)C(C)C)C(=O)N[C@@H](CC(C)C)[C@@H](O)C[C@@H](C)C(=O)N[C@H](C(=O)NCc1ccccc1)C(C)C | 50.1 nM

— ChEMBL document CHEMBL1134775, “Structure-based design: potent inhibitors of human brain memapsin 2 (beta-secretase)” (J Med Chem, 2001)
